What was measured:
[1] = test system: c-di-GMP (PAO1/pCdrA::gfp (ASV)); assay: Intracellular c-di-GMP, indirect, pCdrA::gfp reporter; format: cell-based, Pseudomonas aeruginosa; conditions: FIG. 6
From the text: (§1) The intracellular c-di-GMP may control the conversion of bacterial lifestyle between plankton and biofilm. In order to analyze an effect of the coumarin-chalcone compound C9 on a concentration of the intracellular c-di-GMP, direct and indirect methods were used to measure the level of c-di-GMP in Pseudomonas aeruginosa.
Since the transcription and expression of the extracellular protein CdrA was related to the intracellular concentration of cyclic diguanylic acid (c-di-GMP), PAO1/pCdrA::gfp^s (ASV) was used to analyze c-di-GMP level indirectly.

intracellular c-di-GMP = assay: Intracellular c-di-GMP, direct, LC-MS/MS quantification; format: cell-based, Pseudomonas aeruginosa; conditions: FIG. 7
From the text: as §1
C-di-GMP was directly extracted from PAO1 strain grown with or without the coumarin-chalcone compound C9. The intracellular c-di-GMP was directly measured by LC-MS/MS quantification.

[2] = test system: Pseudomonas aeruginosa biofilm; assay: MBEC of antibiotics, Calgary biofilm device; format: cell-based; conditions: treated with C9 5 mM, versus untreated group
Method: MIC and MBEC values of a biofilm formed on a peg of a […] biofilm device (CGM and CBD) treated with the coumarin-chalcone compound C9 were measured according to methods (Innovotech) in MBECTM high throughput experimental operation manual. Biofilm treated with the coumarin-chalcone compound C9 (5 mM) was cultured in an antibiotic-containing medium in a 96-well plate for 24 h, and the MIC value was obtained by measuring the OD600 of planktonic cells of the above samples. To determine the MBEC value, the biofilm treated with the coumarin-chalcone compound C9 (5 mM) was cultured in an antibiotic-containing medium in a 96-well plate for 24 h, then the biofilm was ultrasonically crushed and subsequently incubated at 37° C. for another 24 hours. Biomass of newly formed biofilms was recorded to indicate the corresponding MBEC value.

[3] = Stability at different pH, UV-Vis spectral analysis; format: physicochemical; conditions: UV absorption, pH range of 3.4 to 8.4
Method: UV-Vis spectral analysis was used to study the stability of the coumarin-chalcone compound C9 at a pH range of 3.4 to 8.4. […] After reaching pH=2, KOH (25 mM) was added slowly until the pH reached 12. In this way, a graph of a relationship between the pH and the volume of KOH added was plotted to find an equivalent point and thus the pKa.
In the embodiment, the stability of the coumarin-chalcone compound C9 was studied. FIGS. 10A to 10C are schematic diagrams illustrating the stability of a coumarin-chalcone compound C9. […] The UV absorption spectroscopy in the pH range of 3.4 to 8.4 further supported the stability of the coumarin-chalcone compound C9. First, HCl (25 mM) was continually added to the coumarin-chalcone compound C9 (initial pH=6.9) until the pH reached 3.4 (FIG. 10B), resulting in an increase in the strength of an absorption band at 330 nm. […] The stability of the coumarin-chalcone compound C9 indicated a great potential to be an anti-QS and anti-biofilm drug.

[4] = test system: Pseudomonas aeruginosa PAO1 biofilm; assay: Biofilm assay (96-well PVC plate, crystal violet); format: cell-based
Method: 1% inoculation amount of the bacterial solution cultured overnight was inoculated into 100 μL Jensen liquid medium. Different equal amounts of bacteria solution with C1 to C12, respectively, or without any additional substance were cultured in a 96-well polyvinyl chloride (PVC) plate (costar) overnight at 30° C. without agitation.
The bacterial biomass adsorbed on the 96-well PVC plate was detected by a crystal violet method, and steps were described as below. (1) The non-attached bacteria were removed using a pipettor, then the wells were gently rinsed with normal saline for 3 times. (2) A volume of 120 μL 0.1% crystal violet solution was added to stain the firmly attached bacterial cells in each well, which then staying static at room temperature for 30 min. (3) The PVC plate was taken out, the crystal violet solution was removed with a pipettor, and the non-attached crystal violet solution was washed with normal saline. (4) The crystal violet attached onto the PVC plate was dissolved with 200 μL of 30% acetic acid solution. The OD value of the acetic acid solution in each well was measured at 560 nm with a spectrophotometer.

## COc1cccc(/C=C/C(=O)c2cc3ccccc3oc2=O)c1 [Compound C9]
[1]
  fluorescence intensity of PAO1/pCdrA::gfp (ASV): significantly reduced
Intracellular c-di-GMP
  reduction on the c-di-GMP concentration: 2 fold
[2]
  MBEC of a biofilm against ciprofloxacin: significantly lower
  MBEC of a biofilm against tobramycin: significantly lower
[3]
  stability at different pH conditions: stable at different pH conditions
[4]; C9 in a range of 1 mM to 5 mM
  formation of Pseudomonas aeruginosa biofilm: significantly inhibited
[4]; FIG. 1, overnight at 30° C., Jensen medium
  reduction of the contents of Pseudomonas aeruginosa PAO1 biofilm: 70%
[4]; Pseudomonas aeruginosa, PAO1, concentration of C9 5 mM, read-out: inhibition rate of biofilm
  inhibition at 5000 µM: 70%

Reference: patent publication US11950594B2, “Methods and compositions for inhibiting formation of biofilms” (INSTITUTE OF MICROBIOLOGY, CHINESE ACADEMY OF SCIENCES, priority 2019, dated 2024)
